Assay results from US9926297B2, “Bicyclic AZA compounds as muscarinic M1 receptor and/or M4 receptor agonists” (Heptares Therapeutics Limited, priority 2014, dated 2018).
Like-named read-outs stand apart in the source and are kept apart here.

How the values were obtained:
[1] = molecular target: T1, human muscarinic M1 receptor (Homo sapiens, UniProt P11229); assay: Alphascreen Surefire phospho-ERK1/2 functional assay, M1; assay type: cell-based; settings: for EC50: CHO cells stably expressing human M1, phospho-ERK1/2, * = variable results, read-out: pEC50 M1 (converted); for Emax: CHO
T1 sequence (P11229 1-460): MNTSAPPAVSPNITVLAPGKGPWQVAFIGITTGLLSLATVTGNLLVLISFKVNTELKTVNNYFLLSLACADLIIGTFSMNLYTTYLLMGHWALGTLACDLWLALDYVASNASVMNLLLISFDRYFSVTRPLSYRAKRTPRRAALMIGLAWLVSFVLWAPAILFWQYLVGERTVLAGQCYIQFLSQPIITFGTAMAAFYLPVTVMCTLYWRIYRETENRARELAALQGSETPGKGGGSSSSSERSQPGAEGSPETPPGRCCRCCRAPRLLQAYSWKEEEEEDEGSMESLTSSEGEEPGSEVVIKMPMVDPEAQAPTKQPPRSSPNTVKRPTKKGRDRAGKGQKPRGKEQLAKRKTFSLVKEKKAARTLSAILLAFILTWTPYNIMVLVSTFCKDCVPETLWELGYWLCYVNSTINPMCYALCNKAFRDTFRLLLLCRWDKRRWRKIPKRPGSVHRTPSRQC

[2] = molecular target: T2, human muscarinic M4 receptor (Homo sapiens, UniProt P08173); assay: Alphascreen Surefire phospho-ERK1/2 functional assay, M4; assay type: cell-based; settings: for EC50: CHO cells stably expressing human M4, phospho-ERK1/2, * = variable results, read-out: pEC50 M4 (converted); for Emax: CHO
T2 construct: expressed in transfected cells
T2 sequence (P08173 1-479): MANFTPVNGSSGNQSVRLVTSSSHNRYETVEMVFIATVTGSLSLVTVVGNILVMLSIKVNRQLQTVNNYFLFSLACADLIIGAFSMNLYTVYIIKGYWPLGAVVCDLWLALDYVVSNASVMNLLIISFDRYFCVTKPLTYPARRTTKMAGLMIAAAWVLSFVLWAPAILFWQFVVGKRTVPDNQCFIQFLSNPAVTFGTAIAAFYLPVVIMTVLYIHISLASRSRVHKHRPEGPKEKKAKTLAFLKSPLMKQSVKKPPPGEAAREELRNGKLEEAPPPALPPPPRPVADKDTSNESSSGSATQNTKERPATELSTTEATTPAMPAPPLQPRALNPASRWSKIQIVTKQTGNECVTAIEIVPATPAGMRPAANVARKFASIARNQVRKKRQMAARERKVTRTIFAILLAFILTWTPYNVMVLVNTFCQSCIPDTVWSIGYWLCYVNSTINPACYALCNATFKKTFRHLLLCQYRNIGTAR

[3] = read-out: % Emax cf. ACh, M1, CHO cells stably expressing human M1, relative to ACh
[4] = read-out: % Emax cf. ACh, M4, CHO cells stably expressing human M4, relative to ACh

EC50 [1] [nM] | Emax [1, 3] [%] | EC50 [2] [nM] | Emax [2, 4] [%] | Structure (SMILES) | Emax ([1]; read-out: % Emax cf. ACh, M1) [%] | Emax ([2]; read-out: % Emax cf. ACh, M4) [%]
794 | 83 | 7940 | 48 | CCOC(=O)N1CCC2(CC(N3CCC(c4cc(N)n[nH]4)CC3)C2)C1 (single isomer, unassigned) [1-19 Isomer 2, ethyl 2-[4-(3-amino-1H-pyrazol-5-yl)piperidin-1-yl]-6-azaspiro[3.4]octane-6-carboxylate] | – | –
200 | 47 | > 20000 | 20 | CCOC(=O)N1CCC2(CC(N3CCC(c4ccn(C)n4)CC3)C2)C1 (single isomer, unassigned) [1-22 Isomer 2, ethyl 2-[4-(1-methyl-1H-pyrazol-3-yl)piperidin-1-yl]-6-azaspiro[3.4]octane-6-carboxylate] | – | –
1000 | 27 | 398 | 41 | CCOC(=O)N1CCC2(CC(N3CCC(c4nnc(CC)[nH]4)CC3)C2)C1 (single isomer, unassigned) [1-27 Isomer 2, ethyl 2-[4-(5-ethyl-1H-1,2,4-triazol-3-yl)piperidin-1-yl]-6-azaspiro[3.4]octane-6-carboxylate] | – | –
2000 | 57 | 501 | 60 | CCOC(=O)N1CCC2(CC(N3CCC(c4nnco4)CC3)C2)C1 (single isomer, unassigned) [1-28 Isomer 2, ethyl 2-[4-(1,3,4-oxadiazol-2-yl)piperidin-1-yl]-6-azaspiro[3.4]octane-6-carboxylate] | – | –
794 | 44 | 126 | 36 | CCOC(=O)N1CCC2(CC(N3CCC(c4nc(C)no4)CC3)C2)C1 (single isomer, unassigned) [1-29 Isomer 2, ethyl 2-[4-(3-methyl-1,2,4-oxadiazol-5-yl)piperidin-1-yl]-6-azaspiro[3.4]octane-6-carboxylate] | – | –
2510 | 34 | 100 | 40 | CCOC(=O)N1CCC2(CC(N3CCC(c4nnn[nH]4)CC3)C2)C1 (single isomer, unassigned) [1-31 Isomer 2, ethyl 2-[4-(1H-tetrazol-5-yl)piperidin-1-yl]-6-azaspiro[3.4]octane-6-carboxylate] | – | –
398 | 80 | 200 | 61 | CCOC(=O)N1CCC2(CC(N3CCC(n4ccnn4)CC3)C2)C1 (single isomer, unassigned) [1-35 Isomer 2, ethyl 2-[4-(1H-1,2,3-triazol-1-yl)piperidin-1-yl]-6-azaspiro[3.4]octane-6-carboxylate] | – | –
5010 | 73 | 251 | 47 | CCOC(=O)N1CCC2(CC(N3CCC(n4cncn4)CC3)C2)C1 (single isomer, unassigned) [1-36 Isomer 2, ethyl 2-[4-(1H-1,2,4-triazol-1-yl)piperidin-1-yl]-6-azaspiro[3.4]octane-6-carboxylate] | – | –
5010 | 38 | 1260 | 80 | CCOC(=O)N1CCC2(CC(N3CCC(c4nccn4CC(=O)O)CC3)C2)C1 (single isomer, unassigned) [1-53 Isomer 2, (2-{1-[6-(ethoxycarbonyl)-6-azaspiro[3.4]oct-2-yl]piperidin-4-yl}-1H-imidazol-1-yl)acetic acid] | – | –
398 | 38 | 100 | 76 | CCOC(=O)N1CCC2(CC(N3CCC(c4c(C)cnn4CC)CC3)C2)C1 (single isomer, unassigned) [1-59 Isomer 2, ethyl 2-[4-(1-ethyl-4-methyl-1H-pyrazol-5-yl)piperidin-1-yl]-6-azaspiro[3.4]octane-6-carboxylate] | – | –

Further lines, the compound ahead of its results:

Structure (SMILES) | EC50 [1] [nM] | Emax [1, 3] [%] | EC50 [2] [nM] | Emax [2, 4] [%] | Emax ([1]; read-out: % Emax cf. ACh, M1) [%] | Emax ([2]; read-out: % Emax cf. ACh, M4) [%]
CCOC(=O)N1CCC2(CC(N3CCC(O)(c4ncc[nH]4)CC3)C2)C1 (single isomer, unassigned) [1-37 Isomer 2, ethyl 2-[4-hydroxy-4-(1 H-imidazol-2-yl)piperidin-1-yl]-6-azaspiro[3.4]octane-6-carboxylate] | 2510 | – | 501 | – | 78 | 126
CCOC(=O)N1CCC2(CC(N3CCC(O)(c4nccn4C)CC3)C2)C1 (single isomer, unassigned) [1-39 Isomer 2, ethyl 2-[4-hydroxy-4-(1-methyl-1H-imidazol-2-yl)piperidin-1-yl]-6-azaspiro[3.4]octane-6-carboxylate] | 1000 | – | 398 | – | 49 | 97
CCOC(=O)N1CCC2(CC(N3CCC(OC)(c4nccn4C)CC3)C2)C1 (single isomer, unassigned) [1-40 Isomer 2, ethyl 2-[4-methoxy-4-(1-methyl-1H-imidazol-2-yl)piperidin-1-yl]-6-azaspiro[3.4]octane-6-carboxylate] | > 20000 | – | 158 | – | 904 | 50
CCOC(=O)N1CCC2(CC(N3CCC(C)(c4nc(C)no4)CC3)C2)C1 (single isomer, unassigned) [1-41 Isomer 2, ethyl 2-[4-methyl-4-(3-methyl-1,2,4-oxadiazol-5-yl)piperidin-1-yl]-6-azaspiro[3.4]octane-6-carboxylate] | 1000 | – | 251 | – | 52 | 35
CCn1nccc1C1CCN(C2CC3(CCN(C(=O)OC)C3)C2)CC1 (single isomer, unassigned) [1-46 Isomer 2, methyl 2-[4-(1-ethyl-1H-pyrazol-5-yl)piperidin-1-yl]-6-azaspiro[3.4]octane-6-carboxylate] | > 20000 | 35 | 200 | 63 | – | –
CCCn1nccc1C1CCN(C2CC3(CCN(C(=O)OC)C3)C2)CC1 (single isomer, unassigned) [1-48 Isomer 2, methyl 2-[4-(1-propyl-1H-pyrazol-5-yl)piperidin-1-yl]-6-azaspiro[3.4]octane-6-carboxylate] | > 20000 | 63 | 631 | 68 | – | –
CCOC(=O)N1CCC2(CC(N3CCC(c4nccn4CCOC)CC3)C2)C1 (single isomer, unassigned) [1-51 Isomer 2, ethyl 2-{4-[1-(2-methoxyethyl)-1H-imidazol-2-yl]piperidin-1-yl}-6-azaspiro[3.4]octane-6-carboxylate] | 1260 | 74 | 158 | 106 | – | –
CCOC(=O)N1CCC2(CC(N3CCC(c4nccn4CC(=O)NC)CC3)C2)C1 (single isomer, unassigned) [1-54 Isomer 2, ethyl 2-(4-{1-[2-(methylamino)-2-oxoethyl]-1H-imidazol-2-yl}piperidin-1-yl)-6-azaspiro[3.4]octane-6-carboxylate] | > 20000 | 51 | 794 | 74 | – | –
COC(=O)N1CCC2(CC(N3CCC(c4nn(C)cc4C)CC3)C2)C1 (single isomer, unassigned) [1-55 Isomer 2, methyl 2-[4-(1,4-dimethyl-1H-pyrazol-3-yl)piperidin-1-yl]-6-azaspiro[3.4]octane-6-carboxylate] | 5010 | 40 | 501 | 64 | – | –
